# From US20100197610A1, “FRUCTOSE 1, 6 BISPHOSPHATE - A NOVEL ANTICONVULSANT DRUG” (Baylor College of Medicine, priority 2007, published 2010)
# Tests used:
# [1] = Markov et al., 2000; cited from earlier work
# [2] = tested on: PTZ-induced generalized tonic-clonic seizures; assay: PTZ model of acute seizures; type: in vivo, Sprague Dawley rats
# Protocol: (§1) All animal experiments were carried out in accordance with the National Institutes of Health guide for the care and use of laboratory animals (NIH publication 8023, revised 1996) and with the approval of the local Animal Use Committee. Unless indicated, all chemicals were obtained from Sigma Chemical Co (St. Louis Mo.). Male, Sprague Dawley rats weighing 50-74 g (young) or 147-309 g (adult) were used in this study. Acute seizures were induced by kainic acid (KA; Ocean Produce Int., Canada), pilocarpine or pentylenetetrazole (PTZ) as previously described (Lian et al 2006). These models were chosen because they initiate seizures by different mechanisms and the seizures have a relatively gradual onset compared to seizures initiated by stimulation. There was no difference in the body weight of the animals receiving the different convulsants. For pilocarpine, kainic acid and PTZ, the mean weights were 219±5 g (range 163-275 g), 215±7 g (range 183-258 g), and 216±13 g (range 147-309 g), respectively. The animals in the drug treatment groups were not different in weight from the animals in the control groups.
# (§2) After administration of KA (10 mg/kg, ip), pilocarpine (scopolamine methyl bromide 1 mg/kg, s.c followed 15 min later by 300 mg/kg, ip pilocarpine) or PTZ (50 mg/kg, ip) (Lian et al., 2006), animals were continuously monitored for seizure activity for at least 5 h after KA or pilocarpine and for 30 min after PTZ. Behavioral seizures were scored by an investigator blinded to the treatment. Latency to the first wet dog shake after KA, latency to the first forelimb clonus (after pilocarpine, kainic acid or PTZ) and the score and duration of seizures were measured. When at least 1 hour had passed without any head bobbing (for pilocarpine) or any wet dog shakes (for KA), seizures were considered over. Status epilepticus lasting longer than 4 hours (for KA) or 5 hours (for pilocarpine) were assigned 4 and 5 hours for seizure duration. For animals receiving PTZ, the seizure duration was defined as the period of tonic-clonic seizures. EEG recording in the hippocampus was conducted as previously described (Lian et al., 2004). After anesthesia, a recording electrode was placed in a burr hole centered at 3.0 mm posterior to bregma, 1.8 mm lateral to the midline and then lowered 3.0 mm. A ground screw and wire was placed over the frontal region in another burr hole. This assembly was fixed to the skull with dental cement.
# (§3) Adult rats received either D-F1,6BP, sodium valproate (VPA, 0.3 g/kg), 2-DG (0.25, 0.5 g/kg) or normal saline (vehicle) intraperitoneally followed 1 h later by one of the convulsants. The dose for VPA was based on experimental evidence that doses from 0.1 to 0.4 g/kg (ip) are effective in animal models (Bough and Eagles, 2001; Manent et al., 2007). Three doses of F1,6BP (0.25, 0.5 and 1 g/kg) were tested with this dosing schedule. Two additional groups were administered F1,6BP (0.5 or 1 g/kg, n=5) after pilocarpine. In this experiment, the F1,6BP was given intraperitoneally at the first behavioral seizure, which was chewing movements of the jaw. Two additional sets of animals were fed the classic ketogenic diet (No. F3666; Bio-Serv, Frenchtown, N.J.). One set of animals was given the diet beginning on postnatal day 22-26 (KD-Yng) and maintained on this diet for 4 weeks. Thus the seizures were tested in this group when the animals had reached approximately the same age (50-54 days) as the majority of the animals tested.
# The latency to seizure onset, seizure score and seizure duration were averaged across animals in each group. Comparisons between groups were done with an analysis of variance with Bonferroni post hoc test. Statistical difference was defined as p<0.05.
# [3] = cited from earlier work
# [4] = Preliminary studies of efficacy, trisodium vs dicalcium salt of FDP; type: in vivo
# [5] = tested on: kainic acid-induced seizures; assay: Kainic acid model of acute seizures; type: in vivo, Sprague Dawley rats; conditions: for animals with mild seizures (wet dog shakes or head bobbing) / animals with severe seizures: 8 animals
# Protocol: as §1, §2
# (§4) Each animal was assigned the score of the most severe seizure observed. The behavioral seizures induced by KA or pilocarpine were scored according to an adjusted version of the scale of Racine (Bough et al., 2002): stage 1, wet dog shakes after KA or trembling after pilocarpine; stage 2, head bobbing and stereotypes; stage 3, unilateral forelimb clonus; stage 4, bilateral forelimb clonus; stage 5, rearing and falling; stage 6, jumping and/or running followed by falling. Death within 24 h was assigned stage 7.
# as §3, with “tested. […]” for “tested.”
# [6] = tested on: pilocarpine-induced seizures; assay: Pilocarpine model of acute seizures; type: in vivo, Sprague Dawley rats
# Protocol: as §1, §2, §4
# as §3, with “tested. […]” for “tested.”
# [7] = 1 g/kg given at first sign of seizure activity after pilocarpine
smiles,measurement,setting,value
"O=C(COP(=O)(O)O)[C@@H](O)[C@H](O)[C@H](O)COP(=O)(O)O [F1,6BP, Fructose-1,6-bisphosphate]",FDP in blood of humans after administration of FDP,[1],3.39 mg/dL
same,latency to the seizures,"[2]; F1,6BP 0.25 g/kg, n=6",107 ± 6 s
same,seizure duration,"[2]; F1,6BP 0.25 g/kg, n=6",18 ± 2 s
same,latency to the seizures,"[2]; F1,6BP 0.5 g/kg, n=6",161 ± 16 s
same,seizure duration,"[2]; F1,6BP 0.5 g/kg, n=6",12 ± 1 s
same,animals with no seizures,"[2]; F1,6BP 1 g/kg",Three out of 8
same,latency to the seizures,"[2]; F1,6BP 1 g/kg, n=7",259 ± 32 s
same,seizure duration,"[2]; F1,6BP 1 g/kg, n=7",11 ± 3 s
same,toxicity in humans,[3]; administered to humans,no reported toxicity
same,safety in healthy volunteers,[3]; doses from 5 to 15 g,safe
same,efficacy of trisodium salt vs dicalcium salt,[4],no difference in efficacy
same,effect on the seizures,"[5]; F1,6BP 0.25 g/kg, n=6",no effect
same,animals with no seizures,"[5]; F1,6BP 0.5 g/kg",Two out of 8
same,mean seizure score,"[5]; F1,6BP 0.5 g/kg",2.5±0.5
same,animals with mild seizures (wet dog shakes or head bobbing),"[5]; F1,6BP 0.5 g/kg",three
same,animals with severe seizures,"[5]; F1,6BP 0.5 g/kg",3
same,onset of seizures,"[5]; F1,6BP 0.5 or 1 g/kg",significantly delayed
same,seizure duration,"[5]; F1,6BP 0.5 or 1 g/kg",decreased
same,seizure score,"[5]; F1,6BP 0.5 or 1 g/kg",decreased
same,animals with no seizures,"[5]; F1,6BP 1 g/kg",Three out of 8
same,average seizure score for the entire group,"[5]; F1,6BP 1 g/kg",1.4±0.5
same,mean latency to first forelimb clonus,"[5]; F1,6BP 1 g/kg",105 ± 7 min
same,animals with mild seizures (wet dog shakes or head bobbing),"[5]; F1,6BP 1 g/kg",3
same,animals with severe seizures,"[5]; F1,6BP 1 g/kg",2
same,latency to forelimb clonus,[6]; [7],increase
same,seizure duration,[6]; [7],decrease
same,progression of the seizures,"[6]; 1 g/kg given at first sign of seizure activity after pilocarpine, n=5",significantly slowed
same,behavioral or electrographic seizures (hippocampal EEG),[6]; 4 rats pretreated with 1 g/kg,no behavioral or electrographic seizures
same,effect on the seizure parameters,"[6]; F1,6BP 0.25 g/kg ip 1 h before pilocarpine, n=5",no effect
same,animals with a seizure score ≧3,"[6]; F1,6BP 0.5 g/kg ip 1 h before pilocarpine",3 out of 10
same,animals with a seizure score ≧3,"[6]; F1,6BP 1 g/kg ip 1 h before pilocarpine",2 out of 10
same,seizure duration,[6]; pretreated with 0.5 or 1 g/kg,significantly decreased
same,seizure score,[6]; pretreated with 0.5 or 1 g/kg,significantly decreased
same,latency to the seizures,[6]; the 5 animals with score ≧3 after 0.5 or 1 g/kg pretreatment,significantly increased
